Reference: ChEMBL document CHEMBL1201862, “PubChem BioAssay data set” (2004)
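Each compound was tested at five concentrations against cells in 96-well plates for 48 hours. Abbreviation: GI50, concentration required for 50% inhibition of growth.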 The source made the active and inactive calls. Cut-off read from the data, not from the text of the source: active = GI50 up to about 1.1 µM and inactive = higher.

Legend:
Experiment in all cases: NCI tumour cell line growth inhibition, 48 h
[1] = system: A498
[2] = system: ACHN
[3] = system: BT-549
[4] = system: EKVX
[5] = system: HCC 2998
[6] = system: HL-60
[7] = system: IGROV-1
[8] = system: M14
[9] = system: MDA-MB-231
[10] = system: MDA-N
[11] = system: Malme-3M
[12] = system: NCI-H23
[13] = system: SK-MEL-28
[14] = system: SNB-75
[15] = system: T47D
[16] = system: TK-10
[17] = system: U-251
[18] = system: UACC-257
[19] = system: UO-31
[20] = system: RPMI-8226

Row | Structure (SMILES) | GI50 [1] | GI50 [2] | GI50 [3] | GI50 [4] | GI50 [5] | GI50 [6] | GI50 [7] | GI50 [8] | GI50 [9] | GI50 [10] | GI50 [11] | GI50 [12] | GI50 [13] | GI50 [14] | GI50 [15] | GI50 [16] | GI50 [17] | GI50 [18] | GI50 [19] | GI50 [20]
1 | CC1C2(C)OC(=N)C(C#N)(C(c3ccco3)O2)C1(C#N)C#N (configuration not stated) | > 100 µM (inactive) | 36.6 µM (inactive) | 35.2 µM (inactive) | 34 µM (inactive) | 26.9 µM (inactive) | 18.8 µM (inactive) | 58.9 µM (inactive) | 19.1 µM (inactive) | 19.1 µM (inactive) | 19.8 µM (inactive) | 31.2 µM (inactive) | 29.9 µM (inactive) | 18.4 µM (inactive) | 97.3 µM (inactive) | 17.8 µM (inactive) | 37.9 µM (inactive) | 24.4 µM (inactive) | 20.5 µM (inactive) | 38.5 µM (inactive) | 
2 | C/C(=N\N=C(\N)OB(F)F)c1ccccn1 | > 100 µM (inactive) | 81.1 µM (inactive) | > 100 µM (inactive) | 18.5 µM (inactive) | > 100 µM (inactive) | 63.5 µM (inactive) | 64.3 µM (inactive) | > 100 µM (inactive) | 24.6 µM (inactive) | 71.9 µM (inactive) | > 100 µM (inactive) | > 100 µM (inactive) | > 100 µM (inactive) | 7.23 µM (inactive) | > 100 µM (inactive) | 59.7 µM (inactive) | 35.7 µM (inactive) | > 100 µM (inactive) | 71.4 µM (inactive) | 
3 | COc1cc(OC)c(OC)cc1/C=C/c1ccccn1 | > 10 µM (inactive) | > 10 µM (inactive) | > 10 µM (inactive) | > 10 µM (inactive) | > 10 µM (inactive) | > 10 µM (inactive) | > 10 µM (inactive) | > 10 µM (inactive) | > 10 µM (inactive) | > 10 µM (inactive) | > 10 µM (inactive) | > 10 µM (inactive) | > 10 µM (inactive) | > 10 µM (inactive) | > 10 µM (inactive) | > 10 µM (inactive) | > 10 µM (inactive) | > 10 µM (inactive) | > 10 µM (inactive) | 
4 | CCOC(=O)c1[nH]cc(C)c1-c1cccn1-c1ccc(Cl)cc1[N+](=O)[O-] | 35.3 µM (inactive) | 23.9 µM (inactive) | 27.2 µM (inactive) | 20.6 µM (inactive) | 19.4 µM (inactive) |  | 14.7 µM (inactive) | 14.9 µM (inactive) | 8.24 µM (inactive) | 22.2 µM (inactive) |  | 23.9 µM (inactive) | 22.8 µM (inactive) | 19.1 µM (inactive) | 31 µM (inactive) | 14.4 µM (inactive) | 15.1 µM (inactive) | 20.1 µM (inactive) | 15.7 µM (inactive) | 
5 | COc1cccc(Nc2nc(C)c([N+](=O)[O-])c(Nc3cccc(OC)c3)n2)c1 | 9.35 µM (inactive) | 19.4 µM (inactive) | 1.85 µM (inactive) | 6.35 µM (inactive) |  | 11.2 µM (inactive) | 14.6 µM (inactive) | 10.4 µM (inactive) | 49.7 µM (inactive) | 17.9 µM (inactive) | 53.1 µM (inactive) | 16.2 µM (inactive) | 39.5 µM (inactive) | 0.313 µM (active) | 2.05 µM (inactive) | 16.8 µM (inactive) | 49.1 µM (inactive) | 9.57 µM (inactive) | 9.27 µM (inactive) | 5.06 µM (inactive)
6 | Oc1ccc(Cc2nccc3cc(O)c(O)cc23)cc1O | 45 µM (inactive) | 88.1 µM (inactive) | 54.3 µM (inactive) | 26.5 µM (inactive) |  | 26.3 µM (inactive) | 33 µM (inactive) | 26.6 µM (inactive) | 97.1 µM (inactive) | 58.2 µM (inactive) | > 100 µM (inactive) | 38.1 µM (inactive) | 79.8 µM (inactive) | 21 µM (inactive) | 30.4 µM (inactive) | 32.7 µM (inactive) | 37.9 µM (inactive) | 20.8 µM (inactive) | 40.6 µM (inactive) | 27.4 µM (inactive)
